Experimental data reported in patent US4691024A, “New mitomycin derivatives, preparation thereof and pharmaceutical compositions containing them” (priority 1984, dated 1987).
Values after ≈ are worked out from the molar mass of the structure shown.

Assays:
[1] = system: Klebsiella pneumoniae ATCC 10031; experiment: microbe, parasite or virus in culture; type: cell-based; details: ATCC10031, pH 7, read-out: MIC, Klebsiella pneumoniae (KP)
From the text: In this table, the following symbols are used:
KP: Klebsiella pneumoniae ATCC 10031

[2] = system: Staphylococcus aureus ATCC 6538P; experiment: Antibacterial activity, minimum growth inhibitory concentration by agar dilution method (SA); type: cell-based; details: ATCC6538P, pH 7, read-out: MIC, Staphylococcus aureus (SA)
Procedure: (§1) The various compounds of formula (I) of Examples 1-26 were tested for antibacterial activity against 6 microorganisms. […]. In this table, the following symbols are used:
SA: Staphylococcus aureus ATCC 6538P

Bacillus subtilis 10707 = experiment: Antibacterial activity, minimum growth inhibitory concentration by agar dilution method (BS); type: cell-based; details: Bacillus subtilis, 10707, pH 7, read-out: MIC, Bacillus subtilis (BS)
Procedure: as §1
BS: Bacillus subtilis 10707

[3] = system: Proteus vulgaris ATCC 6897; experiment: Antibacterial activity, minimum growth inhibitory concentration by agar dilution method (PV); type: cell-based; details: ATCC6897, pH 7, read-out: MIC, Proteus vulgaris (PV)
Procedure: as §1
PV: Proteus vulgaris ATCC 6897

[4] = system: Streptococcus faecalis ATCC 10541; experiment: Antibacterial activity, minimum growth inhibitory concentration by agar dilution method (SF); type: cell-based; details: Enterococcus faecalis, ATCC10541, pH 7, read-out: MIC, Streptococcus faecalis (SF)
Procedure: as §1
SF: Streptococcus faecalis ATCC 10541

[5] = system: Shigella sonnei ATCC 9290; experiment: Antibacterial activity, minimum growth inhibitory concentration by agar dilution method (SS); type: cell-based; details: ATCC9290, pH 7, read-out: MIC, Shigella sonnei (SS)
Procedure: as §1
SS: Shigella sonnei ATCC 9290

[6] = Stability of the product as observed on isolation; type: physicochemical; details: in words; yield not constant
Procedure: To this solution is added dropwise 1 ml of methanol containing 23 mg of L-cysteine methyl ester hydrochloride and 50 μl of triethylamine. About 2 minutes later, the solvent is removed from the mixture by distillation under reduced pressure. Then, a similar treatment to that described in Example 1 is effected to obtain a small amount of Compound 16 as a grayish green powder. The yield of the resultant compound is not constant because of its unstability.
The yield is not constant because of unstability of the product.

**Q.** For `COC(=O)[C@@H](N)CSSCCNC1=C(C)C(=O)C2=C(C1=O)[C@@H](COC(N)=O)[C@@]1(OC)[C@H]3N[C@H]3CN21` [Compound 16, 7-N-[2-[(L-1-Methoxycarbonylcysteamin-S-yl)thio]ethyl]mitomycin C], which MIC [1] is on record?
**A.** The MIC was 0.2 µg/mL (≈ 0.379 µM).

**Q.** What about the MIC [2] of the same compound?
**A.** Its MIC is 0.2 µg/mL (≈ 0.379 µM).

**Q.** What about the MIC (Bacillus subtilis 10707) of the same compound?
**A.** The MIC was < 0.02 µg/mL.

**Q.** What about the MIC [3] of the same compound?
**A.** The MIC was 1.6 µg/mL (≈ 3.03 µM).

**Q.** What about the MIC [4] of the same compound?
**A.** The MIC was 0.39 µg/mL (≈ 0.739 µM).

**Q.** What about the MIC [5] of the same compound?
**A.** The MIC was 50 µg/mL (≈ 94.8 µM).

**Q.** What about the “stability of the resultant compound” value [6] of the same compound?
**A.** Its value is “unstability”.
